The values below come from US4608373A, “Cephem compounds” (Yamanouchi Pharmaceutical Co., Ltd., priority 1982, dated 1986).

The structures appear in SMILES notation. ≈ marks a conversion by molar mass, not a printed value. Where a name gives a salt, the structure may show the parent alone.

Common to all, as to format: cell-based
For assay [1], the system named is Staph. aureus ATCC 6538P. The assay can be described thus: Antibacterial activity (MIC), Staph. aureus ATCC 6538P. The settings on record: Staphylococcus aureus, ATCC6538P, read-out: MIC (minimum effective inhibitory concentration). The source says: (§1) Antibacterial activities (minimum effective inhibitory concentrations) of the compounds of formula I are shown in the following table in comparison with those of cefatazidime having the structure [drawing 5] and cefmenoxime having the structure [drawing 6]

For assay [2], the system named is Staph. aureus Terashima. The experiment in a line: Antibacterial activity (MIC), Staph. aureus Terashima. The following applies: Staphylococcus aureus, read-out: MIC (minimum effective inhibitory concentration).
Text: as §1

The subject of assay [3] is Proteus morgani IID 602. The experiment in a line: Antibacterial activity (MIC), Proteus morgani IID 602. The following applies: Proteus morgani IID 602; read-out: MIC (minimum effective inhibitory concentration).
Text: as §1

The test system of assay [4] is Ent. aerogenes ATCC 13048 (MS-1). The experiment in a line: Antibacterial activity (MIC), Ent. aerogenes ATCC 13048 (MS-1). The following applies: Klebsiella aerogenes, ATCC13048, read-out: MIC (minimum effective inhibitory concentration).
Text: as §1

Assay [5] relates to E. coli Ebara. The assay can be described thus: Antibacterial activity (MIC), E. coli Ebara. The settings on record: Escherichia coli; E. coli Ebara; read-out: MIC (minimum effective inhibitory concentration).
Text: as §1

Assay [6] relates to Staph. aureus Smith. The assay can be described thus: Antibacterial activity (MIC), Staph. aureus Smith. The settings on record: Staphylococcus aureus, read-out: MIC (minimum effective inhibitory concentration).
Text: as §1

Assay [7] relates to Serr. marcescens IID 620. The assay can be described thus: Antibacterial activity (MIC), Serr. marcescens IID 620. The following applies: Serratia marcescens, IID620; Serr. marcescens IID 620; read-out: MIC (minimum effective inhibitory concentration).
Text: as §1

In assay [8] the test system is Ent. cloacae V-8. The assay can be described thus: Antibacterial activity (MIC), Ent. cloacae V-8. The settings on record: Enterobacter cloacae, V8, read-out: MIC (minimum effective inhibitory concentration).
Text: as §1

In assay [9] the test system is Kleb. pneumoniae ATCC 10031. The experiment in a line: Antibacterial activity (MIC), Kleb. pneumoniae ATCC 10031. The settings on record: Klebsiella pneumoniae, ATCC10031, read-out: MIC (minimum effective inhibitory concentration).
Text: as §1

For assay [10], the system named is Ps. aeruginosa NCTC 10490. The experiment in a line: Antibacterial activity (MIC), Ps. aeruginosa NCTC 10490. The following applies: Pseudomonas aeruginosa, NCTC10490, read-out: MIC (minimum effective inhibitory concentration).
Text: as §1

The test system of assay [11] is Ps. aeruginosa IID 5142. The experiment in a line: Antibacterial activity (MIC), Ps. aeruginosa IID 5142. The settings on record: Pseudomonas aeruginosa, IID5142, read-out: MIC (minimum effective inhibitory concentration).
Text: as §1

For `Nc1nc(CO/N=C(\C(=O)NC2C(=O)N3C(C(=O)[O-])=C(C[n+]4ccc(C(=O)O)cc4)CSC23)c2csc(N)n2)cs1` (stereo not drawn) [Example 14, (Z)-7-{α-(2-amino-4-thiazolyl)-α-[(2-amino-4-thiazolyl)methoxyimino]acetamido}-3-(4-carboxylate-1-pyridiniomethyl)-3-cephem-4-carboxylatemono-sodium salt], the MIC in assay [1] came to 3.13 µg/mL; in assay [2], 6.25 µg/mL; in assay [3], 0.78 µg/mL; in assay [4] it was 1.56 µg/mL; in [5] it was 3.13 µg/mL; in assay [6], 3.13 µg/mL. Moreover, the MIC is at most 0.2 µg/mL in assay [7]; 3.13 µg/mL in assay [8]; at most 0.2 µg/mL in [9]; 0.39 µg/mL in assay [10]; 12.5 µg/mL in assay [11].
With `Nc1nc(CO/N=C(\C(=O)NC2C(=O)N3C(C(=O)[O-])=C(C[n+]4ccc(CO)cc4)CS[C@H]23)c2csc(N)n2)cs1` (stereo partly drawn) [Example 15, (Z)-7-{α-(2-amino-4-thiazolyl)-α-[(2-amino-4-thiazolyl)methoxyimino]acetamido}-3-(4-hydroxymethyl-1-pyridiniomethyl)-3-cephem-4-carboxylate], the MIC in [1] was 1.56 µg/mL (≈ 2.59 µM); in assay [2], 1.56 µg/mL (≈ 2.59 µM); in assay [3] it was 1.56 µg/mL (≈ 2.59 µM); in [4], 1.56 µg/mL (≈ 2.59 µM); in [5], at most 0.2 µg/mL; in [6], 1.56 µg/mL (≈ 2.59 µM). The MIC was at most 0.2 µg/mL in [7]; 3.13 µg/mL (≈ 5.19 µM) in assay [8]; at most 0.2 µg/mL in assay [9]; at most 0.2 µg/mL in [10]; 6.25 µg/mL (≈ 10.4 µM) in assay [11].
With `Nc1nc(CO/N=C(\C(=O)NC2C(=O)N3C(C(=O)[O-])=C(C[n+]4cccc(O)c4)CS[C@H]23)c2csc(N)n2)cs1` (stereo partly drawn) [Example 16, (Z)-7-{α-(2-amino-4-thiazolyl)-α-[(2-amino-4-thiazolyl)methoxyimino]acetamido}-3-(3-hydroxy-1-pyridiniomethyl]-3-cephem-4-carboxylate], the MIC is 3.13 µg/mL (≈ 5.32 µM) in assay [1]; 6.25 µg/mL (≈ 10.6 µM) in [2]; 0.78 µg/mL (≈ 1.33 µM) in [3]; 3.13 µg/mL (≈ 5.32 µM) in assay [4]; 1.56 µg/mL (≈ 2.65 µM) in [5]; 6.25 µg/mL (≈ 10.6 µM) in assay [6]. Besides, the MIC in assay [7] was 0.39 µg/mL (≈ 0.663 µM); in assay [8], 6.25 µg/mL (≈ 10.6 µM); in [9], at most 0.2 µg/mL; in assay [10], 1.56 µg/mL (≈ 2.65 µM); in [11], 25 µg/mL (≈ 42.5 µM).
Consider `Nc1nc(CO/N=C(\C(=O)NC2C(=O)N3C(C(=O)[O-])=C(C[n+]4cccc(S(=O)(=O)O)c4)CSC23)c2csc(N)n2)cs1` (stereo not drawn) [Example 17, (Z)-7-{α-(2-amino-4-thiazolyl)-α-[(2-amino-4-thiazolyl)methoxyimino]acetamido}-3-(3-sulfonate-1-pyridiniomethyl)-3-cephem-4-carboxylate mono-sodium salt], for which the MIC in assay [1] amounted to 6.25 µg/mL; in assay [2], 12.5 µg/mL; in [3], 1.56 µg/mL; in assay [4] it was 3.13 µg/mL; in [5], 12.5 µg/mL; in [6], 6.25 µg/mL. Also, the MIC in assay [7] was 0.39 µg/mL; in assay [8], 6.25 µg/mL; in assay [9], 0.39 µg/mL; in assay [10], 1.56 µg/mL; in assay [11] it was 25 µg/mL.
Take `Nc1nc(CO/N=C(\C(=O)NC2C(=O)N3C(C(=O)[O-])=C(C[n+]4cccc(NC=O)c4)CS[C@H]23)c2csc(N)n2)cs1` (stereo partly drawn) [Example 18, (Z)-7-{α-(2-amino-4-thiazolyl)-α-[(2-amino-4-thiazolyl)methoxyimino]acetamido}-3-(3-formamido-1-pyridiniomethyl)-3-cephem-4-carboxylate]: the MIC came out at 0.78 µg/mL (≈ 1.27 µM) in assay [1]; 1.56 µg/mL (≈ 2.53 µM) in [2]; 0.78 µg/mL (≈ 1.27 µM) in assay [3]; 1.56 µg/mL (≈ 2.53 µM) in assay [4]; 0.78 µg/mL (≈ 1.27 µM) in [5]; 0.78 µg/mL (≈ 1.27 µM) in assay [6]. Moreover, the MIC was 0.39 µg/mL (≈ 0.633 µM) in assay [7]; 3.13 µg/mL (≈ 5.08 µM) in [8]; at most 0.2 µg/mL in [9]; 0.39 µg/mL (≈ 0.633 µM) in assay [10]; 6.25 µg/mL (≈ 10.2 µM) in assay [11].
